Measurements reported in patent publication US8835397B2, “Macrocyclic lactone tablet formulation” (Bayer New Zealand Ltd., priority 2006, dated 2014).

Assay: Abamectin blood plasma levels after raw active (no excipients) in gelatine capsule, sheep (Example 2)
Format: in vivo
Details: oral gelatine capsule, raw active without excipients, 0.2 mg/kg
Experimental: Given the results in Example 1, a further trial was completed to determine the influence of the formulation on the degree of absorption of abamectin. This was completed by ascertaining baseline levels of abamectin drug bioavailability when animals are dosed with raw active (no excipients).
Five sheep weighing 59.0 kg to 63.5 kg (mean=61.2 kg) were all dosed with one abamectin treatment, which contained a dose sufficient for a 60 kg animal at the standard dose rate of 0.2 mg/kg for abamectin. The abamectin dose was contained within a gelatine capsule.
Prior to administration of the invention or Reference formulation, all animals were dosed to their individual liveweight with SCANDA™ (Batch 52888, expiry April 2006) at least 14 days prior to each treatment session, and tested free of strongylid nematodes (via faecal egg count) prior to the commencement of each treatment session.
Gelatine capsules containing an abamectin drug (one capsule per sheep) were used. All animals were dosed orally with the assistance of a “pill popper”, which was followed immediately by approx 60 ml of tap water. The capsules were dark green in colour, to prevent the light sensitive abamectin from being prematurely exposed to light.
All animals were blood sampled seven times. […]

## abamectin
  Abamectin blood plasma peak level: just above the detection threshold
